Results from ChEMBL document CHEMBL1909046, “DrugMatrix in vitro pharmacology data”.

What was measured:
[1] = DRUGMATRIX: Tumor Necrosis Factor (TNF), Non-Selective radioligand binding (ligand: [125I] TNF-alpha); assay type: cell membranes, Membrane; details: u-937; Not Active = under 50% inhibition at 10 µM
[2] = molecular target: D(3) dopamine receptor (Homo sapiens, UniProt P35462); assay: DRUGMATRIX: Dopamine D3 radioligand binding (ligand: [3H] Spiperone); assay type: cell membranes, CHO, Membrane; details: for Ki: read-out: Ki
[3] = molecular target: Prostaglandin G/H synthase 1 (Homo sapiens, UniProt P23219); assay: biochemical; assay type: tissue-based, Platelet; details: platelet;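 further: inhibition of COX-1 enzyme activity, with arachidonic acid supplied as substrate; in other assays of this panel Not Active means under 50% inhibition at 10 µM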
[4] = molecular target: T1, Receptor-type tyrosine-protein phosphatase C (Homo sapiens, UniProt P08575); set-up: species or system Escherichia coli;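 further: inhibition of CD45 enzyme activity measured using DiFMUP as substrate; in other assays of this panel Not Active means under 50% inhibition at 10 µM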
T1 sequence (P08575 whole entry): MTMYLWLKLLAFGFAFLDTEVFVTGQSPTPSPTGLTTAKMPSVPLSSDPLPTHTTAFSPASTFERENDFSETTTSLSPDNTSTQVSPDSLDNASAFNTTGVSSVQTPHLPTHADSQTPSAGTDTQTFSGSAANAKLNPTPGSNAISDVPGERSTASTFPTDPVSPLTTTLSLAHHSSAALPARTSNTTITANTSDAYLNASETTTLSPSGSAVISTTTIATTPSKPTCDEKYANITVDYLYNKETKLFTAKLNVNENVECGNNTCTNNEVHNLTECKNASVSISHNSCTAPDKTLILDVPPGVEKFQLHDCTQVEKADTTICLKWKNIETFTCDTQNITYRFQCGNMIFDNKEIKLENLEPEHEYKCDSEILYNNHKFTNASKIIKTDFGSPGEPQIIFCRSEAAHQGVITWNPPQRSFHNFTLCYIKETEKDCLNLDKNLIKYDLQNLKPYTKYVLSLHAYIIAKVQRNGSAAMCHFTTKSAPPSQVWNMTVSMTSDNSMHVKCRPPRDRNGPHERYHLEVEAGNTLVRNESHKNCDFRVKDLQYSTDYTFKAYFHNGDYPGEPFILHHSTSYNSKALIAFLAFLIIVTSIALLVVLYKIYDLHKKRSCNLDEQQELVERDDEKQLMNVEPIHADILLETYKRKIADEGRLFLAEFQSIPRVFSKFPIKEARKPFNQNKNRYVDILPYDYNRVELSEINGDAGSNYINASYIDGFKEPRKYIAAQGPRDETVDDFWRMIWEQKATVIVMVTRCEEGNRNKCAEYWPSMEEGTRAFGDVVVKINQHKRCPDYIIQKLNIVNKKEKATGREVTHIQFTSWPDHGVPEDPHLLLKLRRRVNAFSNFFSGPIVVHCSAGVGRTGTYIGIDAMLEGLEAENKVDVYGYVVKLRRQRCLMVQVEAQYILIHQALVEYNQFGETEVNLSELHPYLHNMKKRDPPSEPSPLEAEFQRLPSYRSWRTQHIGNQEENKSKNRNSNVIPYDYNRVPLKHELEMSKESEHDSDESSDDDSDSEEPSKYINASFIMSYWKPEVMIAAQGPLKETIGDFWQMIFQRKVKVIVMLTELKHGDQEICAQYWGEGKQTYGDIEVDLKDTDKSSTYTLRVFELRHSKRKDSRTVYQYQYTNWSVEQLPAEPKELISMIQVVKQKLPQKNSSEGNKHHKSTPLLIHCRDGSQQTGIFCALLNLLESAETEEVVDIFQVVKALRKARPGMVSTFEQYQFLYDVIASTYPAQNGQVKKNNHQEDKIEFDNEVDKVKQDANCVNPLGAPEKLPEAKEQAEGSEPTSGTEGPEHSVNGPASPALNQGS

[5] = molecular target: T2, 5-hydroxytryptamine receptor 2C (Homo sapiens, UniProt P28335); assay: DRUGMATRIX: Serotonin (5-Hydroxytryptamine) 5-HT2C radioligand binding (ligand: [3H] Mesulergine); assay type: cell membranes, CHO-K1, Membrane; details: Not Active = under 50% inhibition at 10 µM; for Ki: read-out: Ki
T2 sequence (P28335 whole entry): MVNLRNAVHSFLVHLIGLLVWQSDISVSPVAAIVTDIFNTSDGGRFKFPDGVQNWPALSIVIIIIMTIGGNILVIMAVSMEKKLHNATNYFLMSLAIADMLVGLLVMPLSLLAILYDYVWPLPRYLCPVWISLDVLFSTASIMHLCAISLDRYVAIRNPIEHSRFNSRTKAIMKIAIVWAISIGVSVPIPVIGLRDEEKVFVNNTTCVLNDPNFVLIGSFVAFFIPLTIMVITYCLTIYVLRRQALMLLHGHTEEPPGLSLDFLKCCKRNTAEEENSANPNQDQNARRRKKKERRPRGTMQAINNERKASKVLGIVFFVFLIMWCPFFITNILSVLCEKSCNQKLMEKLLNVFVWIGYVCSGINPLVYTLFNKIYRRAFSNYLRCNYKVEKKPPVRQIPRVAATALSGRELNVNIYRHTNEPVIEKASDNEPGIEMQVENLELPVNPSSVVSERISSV

Sequence of D(3) dopamine receptor (P35462 whole entry): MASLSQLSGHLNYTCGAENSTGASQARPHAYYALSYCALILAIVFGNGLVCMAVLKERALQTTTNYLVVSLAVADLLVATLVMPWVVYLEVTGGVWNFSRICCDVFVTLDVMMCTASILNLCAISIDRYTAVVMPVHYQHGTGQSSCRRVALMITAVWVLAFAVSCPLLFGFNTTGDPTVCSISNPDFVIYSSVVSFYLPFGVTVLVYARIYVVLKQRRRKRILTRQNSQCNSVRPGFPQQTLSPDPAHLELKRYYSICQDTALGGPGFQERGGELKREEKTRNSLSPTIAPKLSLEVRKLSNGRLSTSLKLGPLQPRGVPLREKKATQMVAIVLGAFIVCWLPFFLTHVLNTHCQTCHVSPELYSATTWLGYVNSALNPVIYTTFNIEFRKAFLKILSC
Sequence of Prostaglandin G/H synthase 1 (P23219 whole entry): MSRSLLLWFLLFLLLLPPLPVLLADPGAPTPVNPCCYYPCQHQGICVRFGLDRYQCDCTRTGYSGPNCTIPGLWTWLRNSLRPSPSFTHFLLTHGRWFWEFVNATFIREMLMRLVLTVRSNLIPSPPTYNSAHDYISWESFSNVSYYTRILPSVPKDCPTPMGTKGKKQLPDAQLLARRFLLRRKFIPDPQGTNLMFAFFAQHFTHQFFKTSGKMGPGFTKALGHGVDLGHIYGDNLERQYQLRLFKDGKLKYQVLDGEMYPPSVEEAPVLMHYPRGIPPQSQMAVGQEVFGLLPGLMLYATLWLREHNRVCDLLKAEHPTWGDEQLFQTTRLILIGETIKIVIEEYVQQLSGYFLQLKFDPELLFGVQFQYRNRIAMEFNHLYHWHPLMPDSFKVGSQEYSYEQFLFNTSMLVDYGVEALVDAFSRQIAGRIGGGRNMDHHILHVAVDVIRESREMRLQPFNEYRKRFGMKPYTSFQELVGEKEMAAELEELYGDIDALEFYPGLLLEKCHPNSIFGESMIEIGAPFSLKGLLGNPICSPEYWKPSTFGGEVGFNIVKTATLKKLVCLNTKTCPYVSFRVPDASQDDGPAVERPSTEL

Row | Structure (SMILES) | IC50 [1] | Ki [1] | IC50 ([2]; cho) | IC50 [3] | IC50 [4] | IC50 ([5]; cho-k1) | IC50 ([2]; read-out: IC50) [nM] | Ki [2] [nM] | IC50 ([5]; read-out: IC50) [nM] | Ki [5] [nM]
1 | OC[C@H]1O[C@@H]2O[C@H]3[C@H](O)[C@@H](O)[C@@H](O[C@H]4[C@H](O)[C@@H](O)[C@@H](O[C@H]5[C@H](O)[C@@H](O)[C@@H](O[C@H]6[C@H](O)[C@@H](O)[C@@H](O[C@H]7[C@H](O)[C@@H](O)[C@@H](O[C@H]1[C@H](O)[C@H]2O)O[C@@H]7CO)O[C@@H]6CO)O[C@@H]5CO)O[C@@H]4CO)O[C@@H]3CO [ALFADEX] | Not Active | Not Active | Not Active | Not Active | Not Active | Not Active | – | – | – | –
2 | c1ccc2sc(SSc3nc4ccccc4s3)nc2c1 [BENZOTHIAZYL DISULFIDE] | Not Active | Not Active | – | Not Active | Not Active | Not Active | 851 | 289 | – | –
3 | CNC[C@H](O)c1ccc(O)c(O)c1 [EPINEPHRINE] | Not Active | Not Active | Not Active | Not Active | Not Active | Not Active | – | – | – | –
4 | C=CCO [ALLYL ALCOHOL] | Not Active | Not Active | Not Active | Not Active | Not Active | Not Active | – | – | – | –
5 | Clc1cc(Cl)c(OCC#CI)cc1Cl [HALOPROGIN] | Not Active | Not Active | – | Not Active | Not Active | – | 488 | 166 | 2600 | 1360
6 | COc1ccc(C[C@H](N)C(=O)N[C@H]2[C@@H](O)[C@H](n3cnc4c(N(C)C)ncnc43)O[C@@H]2CO)cc1 [PUROMYCIN] | Not Active | Not Active | Not Active | Not Active | Not Active | Not Active | – | – | – | –
7 | ClC1=C(Cl)[C@]2(Cl)[C@@H]3[C@@H]4C[C@@H]([C@H]5O[C@@H]45)[C@@H]3[C@@]1(Cl)C2(Cl)Cl [DIELDRIN] | Not Active | Not Active | Not Active | Not Active | Not Active | Not Active | – | – | – | –
8 | CC(CN1c2ccccc2Sc2ccccc21)N(C)C (configuration not stated) [PROMETHAZINE] | Not Active | Not Active | – | Not Active | Not Active | – | 559 | 190 | 12 | 6.48
9 | NCC(CC(=O)O)c1ccc(Cl)cc1 (configuration not stated) [BACLOFEN] | Not Active | Not Active | Not Active | Not Active | Not Active | Not Active | – | – | – | –
10 | Cl.NC[C@H]1CC[C@H](C(=O)Oc2ccc(CCC(=O)O)cc2)CC1 [CETRAXATE HYDROCHLORIDE] | Not Active | Not Active | Not Active | Not Active | Not Active | Not Active | – | – | – | –
11 | O=C(NCCN1CCOCC1)c1ccc(Cl)cc1 [MOCLOBEMIDE] | Not Active | Not Active | Not Active | Not Active | Not Active | Not Active | – | – | – | –
12 | NC(=O)CN1CCCC1=O | Not Active | Not Active | Not Active | Not Active | Not Active | Not Active | – | – | – | –
